Columns and labels:
Assay type in all cases: biochemical
aryl sulfatase B (ARSB) = target: T1, aryl sulfatase B (ARSB) (Homo sapiens, UniProt P15848); assay: ARSB inhibition assay with 4-MUS substrate; details: for inhibition at 1000 µM: 1 mM compound, 4-MUS substrate, means of two or more determinations, read-out: ARSB% inh @ 1 mM; for IC50: non-linear regression, 7 inhibitor concentrations in duplicate, mean ± SEM
T1 construct: purchased R & D Systems
Procedure: (§1) Compounds were assayed for their ability to inhibit the Sulf-2-catalysed desulfation of 4-methylumbelliferyl sulfate (4-MUS) to the fluorescent 4-methylumbelliferone (MU). To determine their sulfatase selectivity, inhibition of aryl sulfatases A (ARSA) and B (ARSB) was also assessed. To date no suitable benchmark inhibitors of these sulfatase have been reported. […] In the majority of cases the presence of a substituent on the B-ring was detrimental to Sulf-2 inhibition when compared with unsubstituted biphenyl sulfamate 76. Aminosulfates 54 and 62 and carboxylic acid 15 retained potency. […] Compounds 8, 10, 15, 50 and 51 were also relatively potent ARSA inhibitors. […] Aminosulfates 56 and 63 were the best Sulf-2 inhibitors lacking a trichloroethylsulfamate group.
(§2) 1 – Biological assay protocols […]
(§3) Omega data analysis software.
(§4) ARSA and ARSB assay protocols
(§5) Compounds were screened in a 96-well black plate (Sterilin) using 4-MUS as a substrate, using 50 μL reaction mixture containing 40 ng of the commercially available enzymes (ARSA or ARSB from R & D Systems), 50 mM HEPES (pH = 4.5), 10 mM CaCl2, 1 mM test compound (dissolved in DMSO; final concentration of DMSO in reaction = 2%), and H2O (45 μL). The assay mixture was incubated for 1 h at 37 °C, followed by addition of 5 μL of 4-MUS (Km = 1.6 mM for ARSA and 612 μM for ARSB), and incubation for a further 1 h at 37 °C. The reaction was stopped with 100 μL of 1 M Tris (pH = 10.5) and read at 460 nm following excitation at 355 nm in FLUOstar Omega plate reader (BMG Labtech) using Omega data analysis software.

Sulf-2 = target: T2, Sulf-2 (Homo sapiens, UniProt Q8IWU5); assay: Inhibition of Sulf-2-catalysed desulfation of 4-MUS to fluorescent MU; details: for inhibition at 1000 µM: 1 mM compound, 4-MUS substrate, means of two or more determinations, read-out: Sulf-2% inh @ 1 mM; for IC50: non-linear regression, 7 inhibitor concentrations in duplicate, mean ± SEM
T2 construct: host or cells: 293T cells, transiently transfected
T2 sequence (Q8IWU5 25-870): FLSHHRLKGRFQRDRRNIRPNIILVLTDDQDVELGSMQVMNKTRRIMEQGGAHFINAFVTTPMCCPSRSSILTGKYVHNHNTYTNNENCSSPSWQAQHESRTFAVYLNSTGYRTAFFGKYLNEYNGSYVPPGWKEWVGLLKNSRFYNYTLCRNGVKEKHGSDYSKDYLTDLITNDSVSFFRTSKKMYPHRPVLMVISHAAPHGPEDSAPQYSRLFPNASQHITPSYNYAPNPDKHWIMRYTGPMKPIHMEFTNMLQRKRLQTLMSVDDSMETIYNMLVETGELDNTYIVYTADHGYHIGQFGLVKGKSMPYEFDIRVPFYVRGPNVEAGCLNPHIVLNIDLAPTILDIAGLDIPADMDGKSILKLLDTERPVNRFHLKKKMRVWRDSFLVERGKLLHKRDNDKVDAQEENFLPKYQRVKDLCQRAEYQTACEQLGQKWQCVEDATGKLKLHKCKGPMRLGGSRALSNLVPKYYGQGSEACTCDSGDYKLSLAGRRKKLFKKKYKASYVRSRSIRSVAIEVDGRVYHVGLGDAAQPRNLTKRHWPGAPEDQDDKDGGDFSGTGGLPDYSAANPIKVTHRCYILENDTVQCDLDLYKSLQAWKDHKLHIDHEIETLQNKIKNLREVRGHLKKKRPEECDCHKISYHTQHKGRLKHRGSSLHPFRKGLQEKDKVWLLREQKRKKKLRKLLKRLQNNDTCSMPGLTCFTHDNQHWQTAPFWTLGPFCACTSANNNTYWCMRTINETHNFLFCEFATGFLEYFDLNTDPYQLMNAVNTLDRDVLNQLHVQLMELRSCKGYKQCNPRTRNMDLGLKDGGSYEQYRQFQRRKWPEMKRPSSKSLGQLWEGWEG
Procedure: as §1
1 – Biological assay protocols
Compounds were screened using 4-MUS as a substrate for Sulf-2 according to a protocol described by Morimoto-Tomita et al.1 Briefly 293T cells were transiently transfected with pcDNA3.1/Myc-His(-)-HSulf-2 DNA (Addgene) and TransIT-LT1 Transfection Reagent (Mirus) using a transfection mixture at the ratio 1:3 (µg DNA:
µL transfection reagent) in Opti-MEM I reduced serum medium (Gibco). Conditioned medium containing Sulf-2 was collected after 3 days and bound to HIS-Select Nickel affinity gel (Sigma) overnight at 4 °C. Beads were washed three times with washing buffer containing 50 mM HEPES (pH 7.5), 300 mM NaCl, 0.05% Tween 20, followed by washing once with washing buffer containing no tween. Beads were suspended in 50 mM Hepes (pH 7.5) and used in inhibition assays. 20 μL of bead slurry was incubated with 1 mM compound (in DMSO) plus 10X reaction buffer (500 mM HEPES pH 7.5, 100 mM CaCl2) for 1 h at 37 °C. The reaction was started by the addition of 20 μL of 20 mM 4-MUS (final concentration of 8 mM) and incubated at 37 °C for 1 h. The reaction was stopped with 100 μL 1 M Tris buffer (pH 10.4) and read at 460 nm following excitation at 355 nm in FLUOstar Omega plate reader (BMG Labtech) using Omega data analysis software. […]

aryl sulfatase A (ARSA) = target: T3, aryl sulfatase A (ARSA) (Homo sapiens, UniProt P15289); assay: ARSA inhibition assay with 4-MUS substrate; details: for inhibition at 1000 µM: 1 mM compound, 4-MUS substrate, means of two or more determinations, read-out: ARSA% inh @ 1 mM
T3 construct: purchased R & D Systems
T3 sequence (P15289 19-507): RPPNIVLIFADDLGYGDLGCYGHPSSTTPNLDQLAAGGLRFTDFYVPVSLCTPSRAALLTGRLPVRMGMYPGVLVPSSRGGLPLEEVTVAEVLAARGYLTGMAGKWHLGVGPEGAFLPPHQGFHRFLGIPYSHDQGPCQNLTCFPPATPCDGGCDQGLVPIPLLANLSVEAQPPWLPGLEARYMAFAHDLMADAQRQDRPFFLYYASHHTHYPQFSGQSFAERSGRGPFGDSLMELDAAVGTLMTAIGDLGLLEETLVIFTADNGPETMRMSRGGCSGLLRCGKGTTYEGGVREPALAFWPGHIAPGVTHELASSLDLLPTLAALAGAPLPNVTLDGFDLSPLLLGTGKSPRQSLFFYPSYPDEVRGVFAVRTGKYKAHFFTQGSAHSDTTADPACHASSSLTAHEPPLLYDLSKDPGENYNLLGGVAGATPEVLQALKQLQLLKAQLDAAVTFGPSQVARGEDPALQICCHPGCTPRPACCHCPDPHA
Procedure: as §1, §2, §3, §4, §5

[1] = non-linear regression, 7 inhibitor concentrations in duplicate, mean ± SEM

T1 sequence (P15848 37-533, species assumed): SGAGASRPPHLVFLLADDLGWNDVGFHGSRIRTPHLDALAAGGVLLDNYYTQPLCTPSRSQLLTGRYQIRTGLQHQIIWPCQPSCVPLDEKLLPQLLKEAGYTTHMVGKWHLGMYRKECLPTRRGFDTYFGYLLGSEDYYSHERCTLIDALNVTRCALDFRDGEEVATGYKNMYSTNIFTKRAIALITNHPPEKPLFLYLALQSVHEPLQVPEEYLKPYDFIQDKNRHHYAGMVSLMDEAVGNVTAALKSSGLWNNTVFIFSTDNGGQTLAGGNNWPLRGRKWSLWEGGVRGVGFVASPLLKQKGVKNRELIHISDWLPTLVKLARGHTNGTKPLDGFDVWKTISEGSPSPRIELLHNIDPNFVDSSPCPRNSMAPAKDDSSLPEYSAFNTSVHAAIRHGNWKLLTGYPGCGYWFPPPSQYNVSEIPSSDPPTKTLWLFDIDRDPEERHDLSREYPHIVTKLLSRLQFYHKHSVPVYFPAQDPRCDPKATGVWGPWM

| Compound | inhibition at 1000 µM (aryl sulfatase B (ARSB)) [%] | inhibition at 1000 µM (Sulf-2) [%] | inhibition at 1000 µM (aryl sulfatase A (ARSA)) [%] | IC50 (aryl sulfatase B (ARSB)) [µM] | IC50 (Sulf-2) [µM] | IC50 (aryl sulfatase A (ARSA); [1]) [µM] | ARSA IC50 (aryl sulfatase A (ARSA); [1]) | ARSA inhibition over concentration range (aryl sulfatase A (ARSA); concentration range 0.025–1 mM, IC50 could not be determined) |
| --- | --- | --- | --- | --- | --- | --- | --- | --- |
| COC(=O)c1ccccc1-c1cccc(OS(N)(=O)=O)c1 [Compound 8] | 0 | 20 | 86 |  |  |  |  |  |
| Nc1ccccc1-c1cccc(OS(N)(=O)=O)c1 [Compound 11] | 0 | 21 | 0 |  |  |  |  |  |
| Nc1cccc(-c2cccc(OS(N)(=O)=O)c2)c1 [Compound 12] | 0 | 20 | 0 |  |  |  |  |  |
| CC(=O)Nc1ccccc1-c1cccc(OS(N)(=O)=O)c1 [Compound 34] | 0 | 4 | 33 |  |  |  |  |  |
| CC(=O)Nc1cccc(-c2cccc(OS(N)(=O)=O)c2)c1 [Compound 35] | 33 | 8 | 52 |  |  |  |  |  |
| NS(=O)(=O)Oc1cccc(-c2cccc(NS(=O)(=O)OCC(Cl)(Cl)Cl)c2)c1 [Compound 50] | 67 | 99 | 92 | 130 ± 6 | 167 ± 5 | 55 ± 11 |  |  |
| NS(=O)(=O)Oc1cccc(-c2ccc(NS(=O)(=O)OCC(Cl)(Cl)Cl)cc2)c1 [Compound 51] | 68 | 96 | 99 | 101 ± 8 | 566 ± 28 | 91 ± 4 |  |  |
| NS(=O)(=O)Oc1cccc(-c2cccc(NS(=O)(=O)O)c2)c1 [Compound 54] | 0 | 31 | 0 |  |  |  |  |  |
| NS(=O)(=O)Oc1cccc(-c2ccc(NS(=O)(=O)O)cc2)c1 [Compound 55] | 0 | 4 | 0 |  |  |  |  |  |
| NS(=O)(=O)Oc1cccc(-c2ccccc2N(S(=O)(=O)OCC(Cl)(Cl)Cl)S(=O)(=O)OCC(Cl)(Cl)Cl)c1 [Compound 60] | 0 | 10 | 63 |  |  |  |  |  |
| NS(=O)(=O)Oc1cccc(Oc2ccccc2N(S(=O)(=O)OCC(Cl)(Cl)Cl)S(=O)(=O)OCC(Cl)(Cl)Cl)c1 [Compound 61] | 40 | 18 | 82 |  |  |  |  |  |
| NS(=O)(=O)Oc1cccc(-c2ccccc2NS(=O)(=O)O)c1 [Compound 62] | 0 | 37 | 26 |  |  |  |  |  |
| NS(=O)(=O)Oc1cccc(-c2ccccc2)c1 [Compound 76] | 65 | 38 | 14 |  |  |  |  |  |
| CN(C)S(=O)(=O)Oc1cccc(-c2ccccc2)c1 [Compound 77] |  | 0 |  |  |  |  |  |  |
| O=S(=O)(Nc1cccc(-c2ccccc2)c1)OCC(Cl)(Cl)Cl [Compound 79] | 61 | 100 | 0 | 30 ± 11 | 254 ± 3 |  | No inhibition |  |
| O=S(=O)(Nc1cccc(Oc2ccccc2)c1)OCC(Cl)(Cl)Cl [Compound 80] | 99 | 99 | 74 | 34 ± 9 | 298 ± 3 |  |  | Concentration-dependent inhibition was not observed |
| O=S(=O)(OCC(Cl)(Cl)Cl)Oc1cccc(-c2ccccc2)c1 [Compound 81] | 85 | 1 | 70 |  |  |  |  |  |

Now from value to compound, other results behind:

| inhibition at 1000 µM (aryl sulfatase B (ARSB)) [%] | inhibition at 1000 µM (Sulf-2) [%] | inhibition at 1000 µM (aryl sulfatase A (ARSA)) [%] | IC50 (aryl sulfatase B (ARSB)) [µM] | IC50 (Sulf-2) [µM] | IC50 (aryl sulfatase A (ARSA); [1]) [µM] | ARSA IC50 (aryl sulfatase A (ARSA); [1]) | Compound | ARSA inhibition over concentration range (aryl sulfatase A (ARSA); concentration range 0.025–1 mM, IC50 could not be determined) |
| --- | --- | --- | --- | --- | --- | --- | --- | --- |
| 0 | 12 | 59 |  |  |  |  | NS(=O)(=O)Oc1cccc(-c2cccc(C(=O)O)c2)c1 [Compound 9] |  |
| 0 | 22 | 85 |  |  |  |  | NS(=O)(=O)Oc1cccc(-c2ccc(C(=O)O)cc2)c1 [Compound 10] |  |
| 0 | 6 | 61 |  |  |  |  | Nc1ccc(-c2cccc(OS(N)(=O)=O)c2)cc1 [Compound 13] |  |
| 0 | 31 | 98 |  |  |  |  | NS(=O)(=O)Oc1cccc(-c2ccccc2C(=O)O)c1 [Compound 15] |  |
| 17 | 28 | 75 |  |  |  |  | Nc1ccccc1Oc1cccc(OS(N)(=O)=O)c1 [Compound 25] |  |
| 0 | 31 | 75 |  |  |  |  | Nc1cccc(Oc2cccc(OS(N)(=O)=O)c2)c1 [Compound 26] |  |
| 0 | 14 | 75 |  |  |  |  | Nc1ccc(Oc2cccc(OS(N)(=O)=O)c2)cc1 [Compound 27] |  |
| 0 | 3 | 0 |  |  |  |  | CC(=O)Nc1ccc(-c2cccc(OS(N)(=O)=O)c2)cc1 [Compound 36] |  |
| 48 | 11 | 29 |  |  |  |  | CC(=O)Nc1ccccc1Oc1cccc(OS(N)(=O)=O)c1 [Compound 37] |  |
| 0 | 10 | 57 |  |  |  |  | CC(=O)Nc1cccc(Oc2cccc(OS(N)(=O)=O)c2)c1 [Compound 38] |  |
| 0 | 14 | 45 |  |  |  |  | CC(=O)Nc1ccc(Oc2cccc(OS(N)(=O)=O)c2)cc1 [Compound 39] |  |
| 96 | 100 | 100 |  |  |  |  | NS(=O)(=O)Oc1cccc(Oc2cccc(NS(=O)(=O)OCC(Cl)(Cl)Cl)c2)c1 [Compound 52] |  |
| 86 | 98 | 96 | 116 ± 10 | 390 ± 11 | 108 ± 2 |  | NS(=O)(=O)Oc1cccc(Oc2ccc(NS(=O)(=O)OCC(Cl)(Cl)Cl)cc2)c1 [Compound 53] |  |
| 85 | 58 | 95 |  |  |  |  | NS(=O)(=O)Oc1cccc(Oc2cccc(NS(=O)(=O)O)c2)c1 [Compound 56] |  |
| 77 | 13 | 34 |  |  |  |  | NS(=O)(=O)Oc1cccc(Oc2ccc(NS(=O)(=O)O)cc2)c1 [Compound 57] |  |
| 93 | 56 | 54 |  |  |  |  | NS(=O)(=O)Oc1cccc(Oc2ccccc2NS(=O)(=O)O)c1 [Compound 63] |  |
| 0 | 10 | 44 |  |  |  |  | NS(=O)(=O)Oc1cccc(Oc2ccccc2C(=O)O)c1 [Compound 73] |  |
| 0 | 30 | 49 |  |  |  |  | NS(=O)(=O)Oc1cccc(Oc2cccc(C(=O)O)c2)c1 [Compound 74] |  |
| 0 | 23 | 33 |  |  |  |  | NS(=O)(=O)Oc1cccc(Oc2ccc(C(=O)O)cc2)c1 [Compound 75] |  |
|  | 32 |  |  |  |  |  | NS(=O)(=O)Oc1cccc(Oc2ccccc2)c1 [Compound 78] |  |
